In paper PMC8951750, “In Vitro Anticancer and Cancer-Preventive Activity of New Triterpene Glycosides from the Far Eastern Starfish Solaster pacificus” (Marine Drugs, 2022):
“And” between values parts separate entries of the source, which are not always exact repeats. Equal values may be shown once. Read-outs that look alike come from different tables or passages of the source.

How the values were obtained:
JB6 Cl41 cells [1] = assay: Soft agar assay, TPA-induced neoplastic cell transformation; format: cell-based, mouse; details: compound 0.1 µM, TPA 10 ng/mL, soft agar, 2 weeks, vs positive control; 0.1 µM
Method: (§1) JB6 Cl41 cells (2.4 × 10^4) were exposed to epidermal growth factor (EGF) (1 ng/mL) or phorbol 12-myristate 13-acetate (TPA) (10 ng/mL) and treated either with DMSO (control) or the triterpene glycosides 1–9 from S. pacificus (0.1, 0.5, and 1 µM) in 1 mL of 0.3% basal medium Eagle (BME) agar containing 10% FBS, 2 mM L-glutamine, and 25 µg/mL gentamicin (agar mix). The cultures were maintained in a humidified atmosphere with 5% CO2 at 37 °C for 14 days, and the cell’s colonies were scored using a microscope, Motic AE 20 (XiangAn, Xiamen, China), and the ImageJ software bundled with 64-bit Java 1.8.0_112 (NIH, Bethesda, MD, USA). To determine the effect of investigated compounds on neoplastic cell transformation induced by ionizing radiation (X-ray or UVB), JB6 Cl41 cells (3 × 10^5/dish) were seeded in 60 mm dishes and cultured for 24 h at 37 °C in 5% CO2 incubator. Then, the cells were exposed to X-rays (X-ray system XPERT 80 (KUB Technologies, Inc, Milford, CT, USA)) at dose of 0.5 Gy or UVB (wavelengths below 312 nm) (Bio-Link UV irradiation system, Vilber, France) at dose of 0.3 J/cm^2 three times a week for 3 weeks. Irradiated JB6 Cl41 cells (2.4 × 10^4) were treated either with DMSO (control) or the triterpene glycosides 1–9 from S. pacificus (0.1, 0.5, and 1 µM) in 1 mL of agar mix. The cultures were maintained in a humidified atmosphere with 5% CO2 at 37 °C for 14 days, and the cell’s colonies were scored using a microscope, Motic AE 20 (XiangAn, Xiamen 361101, China), and the ImageJ software bundled with 64-bit Java 1.8.0_112 (NIH, Bethesda, MD, USA).

[2] = test system: human melanoma cells RPMI-7951; assay: Cell viability, MTS assay, RPMI-7951; format: cell-based; details: for SI (selectivity index) RPMI-7951: IC50 JB6 Cl41 / IC50 RPMI-7951
Method: (§2) MTS assay was used to measure the cell viability of tested normal and cancer cells. Cells were seeded into 96-well plates (“Jet Biofil”, Guangzhou, China) at density of 1.0 × 10^4/200 µL for 24 h at 37 °C in a 5% CO2 incubator. Then, cell monolayer was treated either with DMSO (control) or various concentrations of the triterpene glycosides 1–9 from S. pacificus (0.1, 0.5, 2.5, 12.5, 62.5 µM) in fresh appropriate culture medium for 24 h. Subsequently, the cells were incubated with 15 µL of 3-(4,5-dimethylthiazol-2-yl)-5-(3-carboxymethoxyphenyl)-2-(4-sulfophenyl)-2H-tetrazolium (MTS reagent) (“Promega”, Madison, WI, USA) for 3 h, and the absorbance of each well was measured at 490/630 nm using Power Wave XS microplate reader (“BioTek”, Wynusky, VT, USA). The concentration at which the compounds exert half of their maximal inhibitory effect on cell viability (IC50) was calculated by the AAT-Bioquest® online calculator [39]. The selectivity index (SI) was calculated as described previously using the following formula SI = IC50 of the compounds in normal cell (JB6 Cl41)/IC50 of the same compounds in human melanoma cell lines (SK-MEL-2, SK-MEL-28, or RPMI-7951).

JB6 Cl41 cells [3] = assay: Soft agar assay, X-ray-induced neoplastic cell transformation; format: cell-based, mouse; details: for inhibition at 0.1 µM: Mus musculus, JB6 Cl41, 504 h, read-out: inhibition of X-ray-induced cell transformation (JB6 Cl41 colonies formation), compound 0.1 µM, X-rays 0.5 Gy three times a week for 3 weeks, soft agar; for inhibition of X-ray-induced cell transformation (JB6 Cl41 colonies formation): compound 0.1 µM, X-rays 0.5 Gy three times a week for 3 weeks, soft agar
Method: as §1

[4] = test system: Human erythrocytes (O(I)+); assay: Hemolysis assay; format: cell-based; details: 1 h, 37 °C, PBS pH 7.4
Method: Human erythrocytes (O(I)+) were obtained from Vladivostok blood transfusion station. Erythrocytes were centrifuged with PBS (pH 7.4) for 5 min at 4 °C by 450× g on a LABOFUGE 400R (Heraeus, Hanau, Germany) centrifuge three times. Then, the residue of erythrocytes was resuspended in ice-cold PBS (pH 7.4) to a final optical density of 2.0 at 700 nm and kept on ice. For the hemolytic assay, 180 µL of erythrocyte suspension was mixed with 20 µL of Cucumarioside A2-2 (positive control) and investigated compounds at concentrations range of 0.1, 0.5, 1, 5, 10 µM in V-bottom 96-well plates. After 1 h of incubation at 37 °C, plates were centrifuged at 900× g for 10 min on an LMC-3000 (Biosan, Riga, Latvia) laboratory centrifuge. Then, we carefully selected 100 µL of supernatant and transferred it to new flat plates, respectively. Lysis of erythrocytes was determined by measuring the concentration of hemoglobin in the supernatant with a microplate photometer Multiskan FC (Thermo Fisher Scientific, Waltham, MA, USA) at 570 nm. The effective dose causing 50% of erythrocytes hemolysis (ED50) was calculated using the computer program SigmaPlot 10.0. All experiments were made in triplicate, p < 0.01.

[5] = test system: human melanoma cells SK-MEL-28; assay: Cell viability, MTS assay, SK-MEL-28; format: cell-based; details: for SI (selectivity index) SK-MEL-28: IC50 JB6 Cl41 / IC50 SK-MEL-28
Method: as §2

JB6 Cl41 cells [6] = assay: Soft agar assay, EGF-induced neoplastic cell transformation; format: cell-based, mouse; details: compound 0.1 µM, EGF 1 ng/mL, soft agar, 2 weeks, vs positive control; 0.1 µM
Method: as §1

JB6 Cl41 cells [7] = assay: Soft agar assay, UVB-induced neoplastic cell transformation; format: cell-based, mouse; details: for inhibition at 0.1 µM: Mus musculus, JB6 Cl41, light or radiation study, 504 h, read-out: inhibition of UVB-induced neoplastic cell transformation (decrease of colonies number), compound 0.1 µM, UVB 0.3 J/cm^2 three times a week for 3 weeks, soft agar; for inhibition of UVB-induced neoplastic cell transformation (decrease of colonies number): compound 0.1 µM, UVB 0.3 J/cm^2 three times a week for 3 weeks, soft agar
Method: as §1

[8] = test system: human melanoma cells SK-MEL-2; assay: Cell viability, MTS assay, SK-MEL-2; format: cell-based; details: for SI (selectivity index) SK-MEL-2: IC50 JB6 Cl41 / IC50 SK-MEL-2
Method: as §2

[9] = test system: non-cancerous mouse epidermal cells JB6 Cl41; assay: Cell viability, MTS assay, JB6 Cl41; format: cell-based
Method: as §2

SK-MEL-2 cells = assay: Soft agar assay, colony formation of cancer cells; format: cell-based, human; details: compound 0.1 µM, 14 days
Method: SK-MEL-2 cells (2.4 × 10^4) were treated either with DMSO (control) or the triterpene glycosides 1–9 from S. pacificus (0.1 µM) in 1 mL of agar mix. After 14 days, colonies of cancer cells were scored as described above.

[10] = read-out: IC50, cell viability SK-MEL-2, MTS assay, 24 h
[11] = read-out: IC50, cell viability RPMI-7951, MTS assay, 24 h
[12] = read-out: IC50, cell viability SK-MEL-28, MTS assay, 24 h
[13] = read-out: IC50, cell viability JB6 Cl41, MTS assay, 24 h, normal cells

Structure (SMILES) | inhibition of TPA-induced neoplastic transformation of JB6 Cl41 cells (JB6 Cl41 cells [1]) | SI (selectivity index) RPMI-7951 [2] | inhibition at 0.1 µM (JB6 Cl41 cells [3]) | ED50, effective dose causing 50% of erythrocytes hemolysis [4] | SI (selectivity index) SK-MEL-28 [5] | inhibition of EGF-induced neoplastic transformation of JB6 Cl41 cells (JB6 Cl41 cells [6]) | inhibition at 0.1 µM (JB6 Cl41 cells [7]) | SI (selectivity index) SK-MEL-2 [8] | IC50 [8, 10] | decrease of colonies number of SK-MEL-2 cells (colony formation) (SK-MEL-2 cells) | IC50 [2, 11] | IC50 [5, 12] | IC50 [9, 13] | further results
COC1C(O)COC(OC2C(O)C(COS(=O)(=O)O)OC(OC3C(C)OC(OC4C(OC5CCC6(C)C7CCC89C(=O)OC(C)(C=CC=C(C)C)C8C(OC(C)=O)CC9(C)C7=CCC6C5(C)C)OCC(O)C4O)C(O)C3O)C2O)C1O [Compound 3, 3β-O-{3-O-methyl-β-D-xylopyranosyl-(1→3)-6-sulfoxy-β-D-glucopyranosyl-(1→4)-β-D-quinovopyranosyl-(1→2)-β-D-xylopyranosyl}-16β-acetoxyholosta-7,22E,24-triene] | 36% | 0.22 | 26% | 0.72 µM and 0.72 ± 0.05 µM | 0.4 | 70% | 13% | 8.8 | 0.68 ± 0.06 µM | 34% | – | – | – | IC50 ([2]; Homo sapiens, RPMI-7951, 24 h, read-out: IC50, cell viability RPMI-7951, MTS assay, 24 h): 27.9 ± 0.09 µM; IC50 ([5]; Homo sapiens, SK-MEL-28, 24 h, read-out: IC50, cell viability SK-MEL-28, MTS assay, 24 h): 14.8 ± 0.03 µM; IC50 ([8]; Homo sapiens, SK-MEL-2, 24 h, read-out: IC50, cell viability SK-MEL-2, MTS assay, 24 h): < 1 µM; IC50 ([9]; Mus musculus, JB6 Cl41, 24 h, read-out: IC50, cell viability JB6 Cl41, MTS assay, 24 h, normal cells): 6 ± 0.1 µM
COC1C(O)C(CO)OC(OC2C(O)C(CO)OC(OC3C(C)OC(OC4C(OC5CCC6(C)C7CCC89C(=O)OC(C)(C=CC=C(C)C)C8C(OC(C)=O)CC9(C)C7=CCC6C5(C)C)OCC(O)C4O)C(OC4OCC(O)C(O)C4O)C3O)C2O)C1O (stereo not drawn) [Compound 4, cucumarioside D] | 99% | 0.2 | 97% | 2.48 µM and 2.48 ± 0.05 µM | – | 92% | 86% | – | 0.67 ± 0.04 µM | 70% | 29.2 ± 0.04 µM | 8.3 ± 0.1 µM | 6.1 ± 0.4 µM | –
CC(=O)OC1CC2(C)C3=CCC4C(C)(C)C(OC5OCC(O)C(O)C5OC5OC(C)C(OC6OC(CO)C(O)C(O)C6O)C(O)C5OC5OCC(O)C(O)C5O)CCC4(C)C3CCC23C(=O)OC(C)(C=CC=C(C)C)C13 [Compound 5, 3β-O-{β-D-glucopyranosyl-(1→4)-[β-D-xylopyranosyl-(1→2)]-β-D-quinovopyranosyl-(1→2)-β-D-xylopyranosyl}-16β-acetoxyholosta-7,22Z,24-triene] | 17% | 0.23 | – | 7.02 ± 0.46 µM | 0.3 | 16% | – | 0.2 | – | 13% | – | – | – | IC50 ([2]; MTS assay, 24 h, read-out: IC50, cell viability RPMI-7951): 38 ± 0.3 µM; inhibition of X-ray-induced cell transformation (JB6 Cl41 colonies formation) (JB6 Cl41 cells [3]): less than 15%; IC50 ([5]; MTS assay, 24 h, read-out: IC50, cell viability SK-MEL-28): 25.3 ± 0.09 µM; inhibition of UVB-induced neoplastic cell transformation (decrease of colonies number) (JB6 Cl41 cells [7]): not effective; IC50 ([8]; MTS assay, 24 h, read-out: IC50, cell viability SK-MEL-2): 37.3 ± 0.01 µM; IC50 ([9]; MTS assay, 24 h, normal cells, read-out: IC50, cell viability JB6 Cl41): 8.7 ± 0.2 µM
COC1C(O)COC(OC2C(O)C(COS(=O)(=O)O)OC(OC3C(C)OC(OC4C(OC5CCC6(C)C7CCC89C(=O)OC(C)(C=CC=C(C)C)C8C(OC(C)=O)CC9(C)C7=CCC6C5(C)C)OCC(O)C4O)C(O)C3O)C2O)C1O [Compound 6, 3β-O-{3-O-methyl-β-D-xylopyranosyl-(1→3)-6-O-6-sulfoxy-β-D-glucopyranosyl-(1→4)-β-D-quinovopyranosyl-(1→2)-β-D-xylopyranosyl}-16β-acetoxyholosta-7,22Z,24-triene] | 61% | 0.2 | – | 1.68 µM and 1.68 ± 0.14 µM | 0.8 | 44% | – | 9.5 | 0.69 ± 0.03 µM | 40% | 32.4 ± 0.5 µM | 8.2 ± 0.2 µM | 6.6 ± 0.3 µM | inhibition of X-ray-induced cell transformation (JB6 Cl41 colonies formation) (JB6 Cl41 cells [3]; 0.1 µM): 23%; inhibition of UVB-induced neoplastic cell transformation (decrease of colonies number) (JB6 Cl41 cells [7]; 0.1 µM): 10%
